Laboratory results published in patent US4585859A, “Analogues of morpholinyl daunorubicin and morpholinyl doxorubicin” (priority 1984, dated 1986).
“And” between values parts separate entries of the source, which are not always exact repeats. Identical values can stand only once. Like-named read-outs stand apart in the source and are kept apart here.

Legend:
[1] = tested on: RNA synthesis in L 1210 Cells; experiment: Inhibition of RNA synthesis in L 1210 Cells; type: cell-based, mouse; settings: for IC50: Mus musculus
[2] = tested on: DNA synthesis in L 1210 Cells; experiment: Inhibition of DNA synthesis in L 1210 Cells; type: cell-based, mouse; settings: Mus musculus
B-16 Melanoma = experiment: Mouse antitumor efficacy vs B-16 Melanoma (Table B)
[3] = tested on: Lymphocyte Leukemia P-388; experiment: Survival time of mice inoculated i.p. with Lymphocyte Leukemia P-388, treated days 5, 9 and 13 (Table A); type: in vivo, mouse
P-388 leukemia = experiment: Mouse antitumor efficacy vs P-388 leukemia (Table B)
heart = settings: some patients; cited from earlier work
mouse leukemia P388 = settings: prior art, U.S. Pat. No. 4,301,277; cited from earlier work
[4] = tested on: tumors (colon cancer, melanoma); settings: cited from earlier work
[5] = L1210, read-out: Leukemia L-1210 Cells Inhibition of Synthesis ED50, DNA
[6] = P-388 in mice, q4d 5,9,13, at optimum dose
[7] = L1210, read-out: Leukemia L-1210 Cells Inhibition of Synthesis ED50, RNA

Question: With `COc1cccc2c1C(=O)c1c(O)c3c(c(O)c1C2=O)C[C@@](O)(C(C)O)C[C@@H]3O[C@H]1C[C@H](N2CCOCC2C#N)[C@H](O)[C@H](C)O1` (stereo partly drawn) [NSC 332305, 3'-deamino-3'-(3"-cyano-4"-morpholinyl)-13-dihydrodaunorubicin] as the molecule, how does the “inhibition of RNA vs DNA synthesis” value [1] read?
Answer: Its value is “much more inhibitory toward RNA synthesis than toward DNA synthesis”.

Question: And the IC50 [2, 5]?
Answer: The IC50 was 0.019 µM.

Question: What about the “Mouse Antitumor Efficacy at Optimum Dose, % T/C” value (shortened to “Mouse Antitumor Efficacy … % T/C”) (B-16 Melanoma; section "ip B16", d 1, ip) of the same molecule?
Answer: The value was 131%.

Question: What about the “Survival Time, % T/C” value [3, 6] of the same molecule?
Answer: The value was 143%.

Question: For `COc1cccc2c1C(=O)c1c(O)c3c(c(O)c1C2=O)C[C@@](O)(C(C)=O)C[C@@H]3O[C@H]1C[C@H](N2CCC(OC)CC2)[C@H](O)[C@H](C)O1` [NSC 334353, 3-deamino-3'-(4"-methoxy-1"-piperidinyl)-daunorubicin], which IC50 [1, 7] is on record?
Answer: The IC50 was 0.12 µM.

Question: And the IC50 [2, 5]?
Answer: The IC50 was 0.63 µM.

Question: And the “Survival Time, % T/C” value [3, 6]?
Answer: Its value is 199%.

Question: What does the source list for `COc1cccc2c1C(=O)c1c(O)c3c(c(O)c1C2=O)C[C@@](O)(C(C)O)C[C@@H]3O[C@H]1C[C@H](N2CCC(OC)CC2)[C@H](O)[C@H](C)O1` (stereo partly drawn) [NSC 334354, 3'-deamino-3'-(4'-methoxy-1-piperidinyl)-13-dihydrodaunorubicin]?
Answer: IC50 ([1]; L1210, L-1210 cells, RNA synthesis, read-out: Leukemia L-1210 Cells Inhibition of Synthesis ED50, RNA): 0.08 µM; IC50 ([2]; L1210, L-1210 cells, DNA synthesis, read-out: Leukemia L-1210 Cells Inhibition of Synthesis ED50, DNA): 0.58 µM; Survival Time, % T/C [3, 6]: 199%

Question: With `COc1cccc2c1C(=O)c1c(O)c3c(c(O)c1C2=O)C[C@@](O)(C(=O)CO)C[C@@H]3O[C@H]1C[C@H](N2CCOCC2)[C@H](O)[C@H](C)O1` [NSC 354646, 3'-deamino-3'-(4"-morpholinyl)doxorubicin] as the molecule, how does the “Mouse Antitumor Efficacy … % T/C” value (P-388 leukemia; ip P388, d 1, ip) read?
Answer: Its value is 182%.

Question: What about the “Optimum Dose” value (P-388 leukemia; ip P388, d 1, ip) of the same molecule?
Answer: The value was 0.05 mg/kg.

Question: What about the “Mouse Antitumor Efficacy … % T/C” value (P-388 leukemia; ip P388, d 1, iv) of the same molecule?
Answer: The value was greater than 143%.

Question: And the “Optimum Dose” value (P-388 leukemia; ip P388, d 1, iv)?
Answer: The value was 0.062 mg/kg.

Question: And the “Mouse Antitumor Efficacy … % T/C” value (P-388 leukemia; ip P388, q4d 1,5,9, ip)?
Answer: Its value is 224%.

Question: And the “Optimum Dose” value (P-388 leukemia; ip P388, q4d 1,5,9, ip)?
Answer: The value was 0.05 mg/kg.

Question: And the “Mouse Antitumor Efficacy … % T/C” value (P-388 leukemia; ip P388, q4d 1,5,9, po)?
Answer: Its value is 175%.

Question: What about the “Optimum Dose” value (P-388 leukemia; ip P388, q4d 1,5,9, po) of the same molecule?
Answer: Its value is 0.05 mg/kg.

Question: What about the “Mouse Antitumor Efficacy … % T/C” value (P-388 leukemia; ip P388, qd 1-9, ip) of the same molecule?
Answer: The value was 209%.

Question: What about the “Optimum Dose” value (P-388 leukemia; ip P388, qd 1-9, ip) of the same molecule?
Answer: Its value is 0.0125 mg/kg.

Question: Which results are given for `COc1cccc2c1C(=N)c1c(O)c3c(c(O)c1C2=O)C[C@@](O)(C(=O)CO)C[C@@H]3O[C@H]1C[C@H](N2CCOCC2)[C@H](O)[C@H](C)O1` [NSC 355277, 3'-deamino-3'-(4"-morpholinyl)-5-iminodoxorubicin]?
Answer: Mouse Antitumor Efficacy at Optimum Dose, % T/C (P-388 leukemia; ip P388, d 1, ip): > 193%; Optimum Dose (P-388 leukemia; ip P388, d 1, ip): 2 mg/kg; Mouse Antitumor Efficacy at Optimum Dose, % T/C (P-388 leukemia; ip P388, d 1, iv): 166%; Optimum Dose (P-388 leukemia; ip P388, d 1, iv): 2.5 mg/kg

Question: For `COc1cccc2c1C(=N)c1c(O)c3c(c(O)c1C2=O)C[C@@](O)(C(O)CO)C[C@@H]3O[C@H]1C[C@H](N2CCOCC2)[C@H](O)[C@H](C)O1` (stereo partly drawn) [NSC 355465, 3'-deamino-3'-(4"-morpholinyl)-5-imino-13-dihydrodoxorubicin], which IC50 [1, 7] is on record?
Answer: Its IC50 is 24 µM.

Question: What about the IC50 [2, 5] of the same molecule?
Answer: The IC50 was greater than 100 µM.

Question: What about the “Survival Time, % T/C” value [3, 6] of the same molecule?
Answer: The value was 161%.

Question: Which results are given for `COc1cccc2c1C(=O)c1c(O)c3c(c(O)c1C2=O)C[C@@](O)(C(=O)CO)C[C@@H]3O[C@H]1C[C@H](N2CCOCC2C#N)[C@H](O)[C@H](C)O1` (stereo partly drawn) [NSC 357704, 3'-deamino-3'-(3"-cyano-4"-morpholinyl)doxorubicin]?
Answer: Mouse Antitumor Efficacy at Optimum Dose, % T/C (B-16 Melanoma; mouse, in vivo, ip): > 138% and 123%; Mouse Antitumor Efficacy at Optimum Dose, % T/C (P-388 leukemia; mouse, in vivo): 152% and > 158%; Optimum Dose (P-388 leukemia; mouse, in vivo): 0.05 mg/kg and 0.1 mg/kg; Mouse Antitumor Efficacy at Optimum Dose, % T/C (P-388 leukemia; mouse, in vivo, ip): 262% and > 360%; Optimum Dose (P-388 leukemia; mouse, in vivo, ip): 0.0125 mg/kg and 0.0063 mg/kg

Question: For `COc1cccc2c1C(=O)c1c(O)c3c(c(O)c1C2=O)C[C@@](O)(C(O)CO)C[C@@H]3O[C@H]1C[C@H](N2CCOCC2C#N)[C@H](O)[C@H](C)O1` (stereo partly drawn) [NSC 360291, 3'-deamino-3'-(3"-cyano-4"-morpholinyl)-13-dihydrodoxorubicin], which “Mouse Antitumor Efficacy … % T/C” value (B-16 Melanoma; mouse, in vivo, ip) is on record?
Answer: Its value is 149% and 121%.

Question: And the “Survival Time, % T/C” value [3, 6]?
Answer: Its value is 150%.

Question: And the “Mouse Antitumor Efficacy … % T/C” value (P-388 leukemia; mouse, in vivo, ip)?
Answer: The value was 183% and 267%.

Question: And the “Optimum Dose” value (P-388 leukemia; mouse, in vivo, ip)?
Answer: Its value is 0.05 mg/kg and 0.025 mg/kg.

Question: Which IC50 [1, 7] does the source give for `COc1cccc2c1C(=O)c1c(O)c3c(c(O)c1C2=O)C[C@@](O)(C(C)=O)C[C@@H]3O[C@H]1C[C@H](N)[C@H](O)[C@H](C)O1` [daunorubicin] here?
Answer: The IC50 was 0.33 µM.

Question: What about the IC50 [2, 5] of the same molecule?
Answer: The IC50 was 0.66 µM.

Question: What about the “Mouse Antitumor Efficacy … % T/C” value (B-16 Melanoma; mouse, in vivo, ip) of the same molecule?
Answer: The value was 195%.

Question: What about the “Survival Time, % T/C” value ([3]; mouse, in vivo) of the same molecule?
Answer: Its value is 130%.

Question: Which results are given for `COc1cccc2c1C(=O)c1c(O)c3c(c(O)c1C2=O)C[C@@](O)(C(=O)CO)C[C@@H]3O[C@H]1C[C@H](N)[C@H](O)[C@H](C)O1` [doxorubicin]?
Answer: IC50 [1, 7]: 0.58 µM; IC50 [2, 5]: 1.5 µM; heart damage in chronic treatment (heart): irreversible heart damage that can be fatal if continued; T/C value against P388 (mouse leukemia P388): 160%; T/C vs mouse leukemia P388 ([3]; at 50 mg/kg (thiomorpholino) or 8 mg/kg (doxorubicin)): 160%; dose required vs mouse leukemia P388 ([3]; dose for the T/C quoted): 8 mg/kg; Survival Time, % T/C ([3]; mouse, in vivo): 160%; response of patients with some serious tumor types (colon cancer, melanoma) [4]: essentially no patients with some serious tumor types (colon cancer, melanoma) respond; Mouse Antitumor Efficacy at Optimum Dose, % T/C (P-388 leukemia; mouse, in vivo): 185%; Optimum Dose (P-388 leukemia; mouse, in vivo): 10 mg/kg; Mouse Antitumor Efficacy at Optimum Dose, % T/C (P-388 leukemia; mouse, in vivo, ip): 252% and 257% and > 285%
